The record followed here is patent publication US20260315452A1, “PROTEASE INHIBITORS AND USES THEREOF” (priority 2023, published 2026).

Some results are limits rather than exact numbers.

One may read the IC50 as the concentration that gives 50% inhibition.

This assay addresses SARS-CoV-2 3CLpro (Severe acute respiratory syndrome coronavirus 2, UniProt P0DTD1). As to the kind of experiment: biochemical. The following applies: inhibition of SARS-CoV-2 3CLpro; 15 nM 3CLpro, 25 μM fluorogenic substrate, 37° C.; read-out: Inhibitory Activity (IC50).
For the compound `CNC(=O)c1cc(Br)cc(S(C)(=O)=O)c1N[C@@H]1CCCC[C@@H]1NC(=O)c1cncc2ccccc12` [Compound 57, N-((1S,2R)-2-((4-bromo-2-(methylcarbamoyl)-6-(methylsulfonyl)phenyl)amino)cyclohexyl) isoquinoline-4-carboxamide], the IC50 was no less than 10000 nM. With `O=C(N[C@H]1CCOC1)c1cc(Br)cc(C(F)(F)F)c1N[C@H]1CN(C(=O)c2cncc3cccnc23)CCC1(F)F` [Compound 109, 5-bromo-2-(((S)-4,4-difluoro-1-(1,6-naphthyridine-8-carbonyl)piperidin-3-yl)amino)-N-((S)-tetrahydrofuran-3-y1)-3-(trifluoromethyl)benzamide] the figure was less than 100 nM; with `CNC(=O)c1cc(Br)cc([N+](=O)[O-])c1N[C@H]1CN(C(=O)c2cncc3ccccc23)C[C@H]1F` [Compound 166, 5-bromo-2-[[(3S,4R)-4-fluoro-1-(isoquinoline-4-carbonyl)pyrrolidin-3-yl]amino]-N-methyl-3-nitro-benzamide], less than 100 nM; with `CNC(=O)c1cc(Cl)cc([N+](=O)[O-])c1N[C@H]1CN(C(=O)c2cncc3ccn(C)c23)CC[C@@H]1F` [Compound 178, 5-chloro-2-(((3S, 4S)-4-fluoro-1-(1-methyl-1H-pyrrolo[3,2-c]pyridine-7-carbonyl)piperidin-3-yl)amino)-N-methyl-3-nitrobenzamide], less than 100 nM. Consider `CNC(=O)c1cc(Br)cc([N+](=O)[O-])c1N[C@H]1CN(C(=O)c2cccnc2C#N)CCC1(F)F` [Compound 114, (S)-5-bromo-2-((1-(2-cyanonicotinoyl)-4,4-difluoropiperidin-3-yl)amino)-N-methyl-3-nitrobenzamide], for which the IC50 is 1000 to 10000 nM. The value for `CNC(=O)c1cc(Br)cc(C(F)(F)F)c1N[C@H]1CN(C(=O)c2cncc3ccccc23)CC[C@@H]1F` [Compound 183, 5-bromo-2-(((3S, 4S)-4-fluoro-1-(isoquinoline-4-carbonyl)piperidin-3-yl)amino)-N-methyl-3-(trifluoromethyl)benzamide] was less than 100 nM. The value for `CNC(=O)c1cc(Br)cc([N+](=O)[O-])c1N[C@H]1CN(C(=O)c2cnnn2C)CCC1(F)F` [Compound 113, (S)-5-bromo-2-((4,4-difluoro-1-(1-methyl-1H-1,2,3-triazole-5-carbonyl)piperidin-3-yl)amino)-N-methyl-3-nitrobenzamide] was no less than 10000 nM. The value for `CNC(=O)c1cc(Br)cc(C(F)(F)F)c1N[C@H]1CN(C(=O)c2cncc3ccccc23)CC[C@H]1F` [Compound 181, 5-bromo-2-(((3S,4R)-4-fluoro-1-(isoquinoline-4-carbonyl)piperidin-3-yl)amino)-N-methyl-3-(trifluoromethyl)benzamide] was less than 100 nM; that for `C[C@@H](NC(=O)c1cc(Br)cc([N+](=O)[O-])c1N[C@@H]1COCC[C@@H]1NC(=O)c1cncc2ccccc12)C(F)(F)F` [Compound 136, N-((3S, 4S)-3-((4-bromo-2-nitro-6-(((R)-1,1,1-trifluoropropan-2-yl)carbamoyl)phenyl)amino)tetrahydro-2H-pyran-4-yl)isoquinoline-4-carboxamide] was 100 to 1000 nM; that for `CNC(=O)c1cc(Br)cc([N+](=O)[O-])c1N[C@@H]1CCCCN(C(=O)c2cnc3ccccc3c2)C1` [Compound 20, (R)-5-bromo-N-methyl-3-nitro-2-((1-(quinoline-3-carbonyl)azepan-3-yl)amino)benzamide] was 100 to 1000 nM. With `CNC(=O)c1cc(Br)cc([N+](=O)[O-])c1N[C@@H]1CCCC[C@@H]1NC(=O)c1cncc(N)c1` [Compound 3, 5-amino-N-((1S, 2R)-2-((4-bromo-2-(methylcarbamoyl)-6-nitrophenyl)amino)cyclohexyl)nicotinamide], the IC50 is 1000 to 10000 nM. As to `CNC(=O)c1cc(Br)cc([N+](=O)[O-])c1O[C@@H]1CN(C(=O)c2cncc3ccccc23)CCC1(F)F` [Compound 179, (R)-5-bromo-2-((4,4-difluoro-1-(isoquinoline-4-carbonyl)piperidin-3-yl)oxy)-N-methyl-3-nitrobenzamide], the IC50 is 100 to 1000 nM. The value for `CNC(=O)c1cc(Cl)cc([N+](=O)[O-])c1N[C@H]1CN(C(=O)c2cncc3ncn(C)c23)CCC1(F)F` [Compound 105, (S)-5-chloro-2-((4,4-difluoro-1-(1-methyl-1H-imidazo[4,5-c]pyridine-7-carbonyl)piperidin-3-yl)amino)-N-methyl-3-nitrobenzamide] was less than 100 nM; that for `O=C(N[C@H]1CCOC1)c1cc(Cl)cc(C(F)(F)F)c1N[C@H]1CN(C(=O)c2cncc3ccccc23)CCC1(F)F` [Compound 165, 5-chloro-2-(((S)-4,4-difluoro-1-(isoquinoline-4-carbonyl)piperidin-3-yl)amino)-N-((S)-tetrahydrofuran-3-yl)-3-(trifluoromethyl)benzamide] was less than 100 nM.

As to `CNC(=O)c1cc(Cl)cc([N+](=O)[O-])c1N[C@H]1CN(C(=O)c2cncc3cnn(C)c23)CCC1(F)F` [Compound 106, (S)-5-chloro-2-((4,4-difluoro-1-(1-methyl-1H-pyrazolo[4,3-c]pyridine-7-carbonyl)piperidin-3-yl)amino)-N-methyl-3-nitrobenzamide], the 50% inhibitory concentration (IC50) was less than 100 nM. With `CNC(=O)c1cc(Br)cc([N+](=O)[O-])c1NC(C(C)C)C1CN(C(=O)c2cncc3ccccc23)C1` (stereo in doubt) [Compound 15, (R)-5-bromo-2-((1-(1-(isoquinoline-4-carbonyl)azetidin-3-yl)-2-methylpropyl)amino)-N-methyl-3-nitrobenzamide] the figure was no less than 10000 nM; with `CNC(=O)c1cc(Br)cc([N+](=O)[O-])c1N[C@H]1CN(C(=O)c2cncc3ccccc23)CC[C@H]1C` [Compound 141, 5-bromo-2-(((3R, 4R)-1-(isoquinoline-4-carbonyl)-4-methylpiperidin-3-yl)amino)-N-methyl-3-nitrobenzamide], 100 to 1000 nM; with `CNC(=O)c1cc(Br)cc([N+](=O)[O-])c1N[C@@H]1CCC(C)(C)N(C(=O)c2cncc3ccccc23)C1` [Compound 138, (R)-5-bromo-2-((1-(isoquinoline-4-carbonyl)-6,6-dimethylpiperidin-3-yl)amino)-N-methyl-3-nitrobenzamide], 100 to 1000 nM. The value for `CNC(=O)c1cc(Cl)cc([N+](=O)[O-])c1N[C@H]1CN(C(=O)c2cncc(Cl)c2C)CCC1(F)F` [Compound 169, (S)-5-chloro-2-((1-(5-chloro-4-methylnicotinoyl)-4,4-difluoropiperidin-3-yl)amino)-N-methyl-3-nitrobenzamide] was less than 100 nM; that for `O=C(NC1CC(F)(F)C1)c1cc(Br)cc([N+](=O)[O-])c1N1CCC2(CCN(C(=O)c3cncnc3)C2)C1` (centres unmarked) [Compound 115, 5-bromo-N-(3,3-difluorocyclobutyl)-3-nitro-2-(7-(pyrimidine-5-carbonyl)-2,7-diazaspiro[4.4]nonan-2-yl)benzamide] was no less than 10000 nM. The value for `CC(C)C(Nc1c(-c2nnc[nH]2)cc(Br)cc1[N+](=O)[O-])C1CN(C(=O)c2cncc3ccccc23)C1` (centres unmarked) [Compound 17, (3-(1-((4-bromo-2-nitro-6-(4H-1,2,4-triazol-3-yl)phenyl)amino)-2-methylpropyl)azetidin-1-yl)(isoquinolin-4-yl)methanone] was 100 to 1000 nM; that for `O=C(N[C@@H]1CCOC1)c1cc(Br)cc(C(F)(F)F)c1N[C@H]1CN(C(=O)c2cncc3ccccc23)CCC1(F)F` [Compound 182, 5-bromo-2-(((S)-4,4-difluoro-1-(isoquinoline-4-carbonyl)piperidin-3-yl)amino)-N-((R)-tetrahydrofuran-3-yl)-3-(trifluoromethyl)benzamide] was less than 100 nM; that for `CNC(=O)c1cc(Cl)cc([N+](=O)[O-])c1N[C@H]1CN(C(=O)c2cncc3cc(O)ccc23)CCC1(F)F` [Compound 168, (S)-5-chloro-2-((4,4-difluoro-1-(7-hydroxyisoquinoline-4-carbonyl)piperidin-3-yl)amino)-N-methyl-3-nitrobenzamide] was less than 100 nM. For `COC(=O)c1cc(Br)cc([N+](=O)[O-])c1N[C@@H]1CCCC[C@@H]1NC(=O)c1cncc2ccccc12` [Compound 51, methyl 5-bromo-2-(((1R, 2S)-2-(isoquinoline-4-carboxamido)cyclohexyl)amino)-3-nitrobenzoate], the IC50 fell in the range of 100 to 1000 nM. Take `CNC(=O)c1cc(Br)cc([N+](=O)[O-])c1NCC1CN(C(=O)c2cncc3ccccc23)CC1(F)F` (centres unmarked) [Compound 77, 5-bromo-2-(((4,4-difluoro-1-(isoquinoline-4-carbonyl)pyrrolidin-3-yl)methyl)amino)-N-methyl-3-nitrobenzamide]: the IC50 lay in the range of 1000 to 10000 nM. As to `CNC(=O)c1cc(Br)cc([N+](=O)[O-])c1N[C@@H]1CCCC[C@@H]1NC(=O)c1cncc(CN)c1` [Compound 6, 5-(aminomethyl)-N-((1S,2R)-2-((4-bromo-2-(methylcarbamoyl)-6-nitrophenyl)amino)cyclohexyl) nicotinamide], the IC50 was no less than 10000 nM. Take `CNC(=O)c1cc(Br)cc([N+](=O)[O-])c1N[C@H]1CN(Cc2cncc3ccccc23)CCC1(F)F` [Compound 32, (S)-5-bromo-2-((4,4-difluoro-1-(isoquinolin-4-ylmethyl)piperidin-3-yl)amino)-N-methyl-3-nitrobenzamide]: the IC50 lay within 100 to 1000 nM.

In the case of `CC(C)C(Nc1c(-c2ncco2)cc(Br)cc1[N+](=O)[O-])C1CN(C(=O)c2cncc3ccccc23)C1` (centres unmarked) [Compound 65, (3-(1-((4-bromo-2-nitro-6-(oxazol-2-yl)phenyl)amino)-2-methylpropyl)azetidin-1-yl)(isoquinolin-4-yl)methanone], the IC50 lay within 1000 to 10000 nM. With `CNC(=O)c1cc(Br)cc([N+](=O)[O-])c1NC1(C2CN(C(=O)c3cncc4ccccc34)C2)CC1` [Compound 63, 5-bromo-2-((1-(1-(isoquinoline-4-carbonyl)azetidin-3-yl)cyclopropyl)amino)-N-methyl-3-nitrobenzamide] the figure was 1000 to 10000 nM.
